The nature of data set [1]: logP determination by HPLC (reversed-phase C18, EEC Directive 79/831 Annex V.A8). The class given is physicochemical. As for the experimental part: The logP values stated in the above tables and Preparation Examples are determined in accordance with EEC Directive 79/831 Annex V.A8 by HPLC (High Performance Liquid Chromatography) using a reversed-phase column (C 18). Temperature: 43° C.
In the acidic range at pH 2.3 the determination takes place using 0.1% aqueous phosphoric acid and acetonitrile as the mobile phases; linear gradient from 10% acetonitrile to 90% acetonitrile. Corresponding results are marked in the tables by “a)”
In the neutral range at pH 7.5 the determination takes place using 0.01 molar aqueous phosphate buffer solution and acetonitrile as the mobile phases; linear gradient from 10% acetonitrile to 90% acetonitrile. Corresponding results are marked in the tables by “b)”
Calibration is carried out using unbranched alkan-2-ones (having 3 to 16 carbon atoms), with known logP values (the logP values determined on the basis of the retention times using linear interpolation between two successive alkanones).

Data set [2] has as its system greenhouse red spider mite (Tetranychus urticae). Kind of data set: Tetranychus test (OP resistant/dip treatment). The data set is classed as in vivo. The settings on record: 168 h. The protocol: Tetranychus Test (OP Resistant/Dip Treatment)
Solvent: 7 parts by weight of dimethylformamide
After the desired period of time, the effect in % is determined.

In data set [3] the test system is larvae of the mustard beetle (Phaedon cochleariae). The data set can be described thus: Phaedon larvae test. The settings on record: in Brassica oleracea, 168 h.
For data set [4], the system named is army worm (Spodoptera frugiperda) caterpillars. The data set can be described thus: Spodoptera frugiperda test. The data set is classed as in vivo. The settings on record: in Brassica oleracea, 168 h.
Where [5] appears, read: HPLC, acidic range pH 2.3, 0.1% aqueous phosphoric acid/acetonitrile; marked a), read-out: log P (pH 2.3).
Where [6] appears, read: HPLC, neutral range pH 7.5, 0.01 molar phosphate buffer/acetonitrile; marked b), read-out: log P (pH 7.5).
Where [7] appears, read: read-out: Kill rate in % after 7 d, 100 ppm, bean plants dipped, Tetranychus urticae OP-resistant.
[8] abbreviates: read-out: Kill rate in % after 7 d, 100 ppm, cabbage leaves dipped, Phaedon cochleariae larvae.
[9] abbreviates: read-out: Kill rate in % after 7 d, 100 ppm, cabbage leaves dipped, Spodoptera frugiperda.
Setting [10] is: reversed-phase C18 HPLC column; HPLC, acidic range pH 2.3, 0.1% aqueous phosphoric acid/acetonitrile; marked a), read-out: log P (pH 2.3).
Setting [11] is: reversed-phase C18 HPLC column; HPLC, neutral range pH 7.5, 0.01 molar phosphate buffer/acetonitrile; marked b), read-out: log P (pH 7.5).
Setting [12] is: 100 ppm, cabbage leaves dipped, read-out: Kill rate in % after 7 d.
[13] abbreviates: 100 ppm, bean plants dipped, Tetranychus urticae OP-resistant, read-out: Kill rate in % after 7 d.
Where [14] appears, read: read-out: Kill rate in % after 7 d.

Read-outs that look alike come from different tables or passages of the source. Some results are limits rather than exact numbers.

As to `CCCCCCOC(=O)Nc1ccc(-c2ccc(C3CCC(c4c(F)cccc4F)=N3)cc2)cc1` (stereo not drawn) [Compound 19], the results for the chromatographic logP in data set [1] (setting [5]) and in data set [1] (setting [6]) were 4.46 and 5.26, respectively. The pest or weed control at 100 ppm in data set [2] (setting [7]) and in data set [3] (setting [8]) was at least 85% in each case.

With `CN(C)CCOC(=O)Nc1ccc(-c2ccc(C3CCC(c4c(F)cccc4F)=N3)cc2)cc1` (stereo not drawn) [Compound 30], the chromatographic logP in data set [1] (setting [5]) came out at 1.37. Also, the results for the pest or weed control at 100 ppm in data set [4] (setting [9]) and in data set [2] (setting [7]) were at least 95% and at least 85%, respectively.

On to `COC(=O)Nc1ccc(Br)cc1` [III-1, methyl 4-bromophenylcarbamate], for which the chromatographic logP in data set [1] (setting [5]) was determined as 2.27.

Regarding `CCCCOC(=O)N(C)c1ccc(Br)cc1` [III-3, n-butyl-4-bromophenyl(methyl)carbamate], in data set [1] (setting [5]), the chromatographic logP is 3.88.

Turning to `O=C(Nc1ccc(-c2ccc(C3CCC(c4c(F)cccc4F)=N3)cc2)cc1)OCCOCCOCCCC(F)(F)C(F)(F)F` (stereo not drawn) [Compound 34], the chromatographic logP in data set [1] (setting [5]) turned out to be 3.7; in data set [1] (setting [6]) it was 4.73. For the same compound, the pest or weed control at 100 ppm is at least 95% in data set [4] (setting [9]) and at least 85% in data set [2] (setting [7]).

Turning to `CCCOC(=O)Nc1ccc(Br)cc1` [III-2, n-propyl 4-bromophenylcarbamate], the chromatographic logP in data set [1] (setting [5]) turned out to be 3.12.

For the compound `O=C(Nc1ccccc1)Nc1ccc(-c2ccc(C3CCC(c4c(F)cccc4F)=N3)cc2)cn1` (stereo not drawn) [Compound 22], the chromatographic logP in data set [1] (setting [10]) turned out to be 2.71; in data set [1] (setting [11]), 3.98. For the same compound, the pest or weed control at 100 ppm in data set [4] (setting [12]) was at least 95%; in data set [2] (setting [13]), at least 85%.

Regarding `COC(=O)N(C)c1ccc(-c2ccc(C3CCC(c4c(F)cccc4F)=N3)cc2)cc1` (stereo not drawn) [Compound 35], the chromatographic logP in data set [1] (setting [5]) was found to be 2.58; in data set [1] (setting [6]), 3.79. Besides, the pest or weed control at 100 ppm in data set [2] (setting [7]) and in data set [3] (setting [8]) was at least 85% each time.

Regarding `CCCCC(CC)COCCOC(=O)Nc1ccc(-c2ccc(C3CCC(c4c(F)cccc4F)=N3)cc2)cc1` (stereo not drawn) [Compound 28], the chromatographic logP turned out to be 5.13 in data set [1] (setting [5]) and 5.97 in data set [1] (setting [6]). For the same compound, the pest or weed control at 100 ppm in data set [4] (setting [9]) is at least 95%; in data set [2] (setting [7]), at least 85%.

In the case of `CC(C)(C)COC(=O)Nc1ccc(-c2ccc(C3CCC(c4c(F)cccc4F)=N3)cc2)cc1` (stereo not drawn) [Compound 23], the chromatographic logP in data set [1] (setting [5]) came to 3.76. Moreover, the pest or weed control at 100 ppm in data set [4] (setting [9]) was at least 95%; in data set [2] (setting [7]), at least 85%.

For the compound `CCOCCOC(=O)Nc1ccc(-c2ccc(C3CCC(c4c(F)cccc4F)=N3)cc2)cc1` (stereo not drawn) [Compound 32], the results for the chromatographic logP in data set [1] (setting [5]) and in data set [1] (setting [6]) were 2.52 and 3.75, respectively. The pest or weed control at 100 ppm in data set [2] (setting [7]) and in data set [3] (setting [8]) was at least 85% throughout.

As to `CC(C)CCOC(=O)Nc1ccc(-c2ccc(C3CCC(c4c(F)cccc4F)=N3)cc2)cc1` (stereo not drawn) [Compound 21], the chromatographic logP in data set [1] (setting [5]) turned out to be 3.72. The pest or weed control at 100 ppm in data set [4] (setting [9]) was at least 95%; in data set [3] (setting [8]), at least 85%.

Take `Nc1ccc(-c2ccc(C3CCC(c4c(F)cccc4F)=N3)cc2)cc1` (stereo not drawn) [VII-1, 4′-[5-(2,6-difluorophenyl)-3,4-dihydro-2H-pyrrol-2-yl]-1 ′-biphenyl-4-amine]: the chromatographic logP in data set [1] (setting [10]) is 1.25.

For `CC(C)C(C)OC(=O)Nc1ccc(-c2ccc(C3CCC(c4c(F)cccc4F)=N3)cc2)cc1` (stereo not drawn) [Compound 16], the chromatographic logP worked out at 3.82 in data set [1] (setting [5]) and 4.77 in data set [1] (setting [6]). Further, the pest or weed control at 100 ppm in data set [3] (setting [8]) is at least 85%.

Take `CCCCCOC(=O)Nc1ccc(-c2ccc(C3CCC(c4c(F)cccc4F)=N3)cc2)cc1` (stereo not drawn) [Compound 18]: the chromatographic logP is 3.87 in data set [1] (setting [5]) and 4.89 in data set [1] (setting [6]). Further, the pest or weed control at 100 ppm in data set [4] (setting [9]) is at least 95%; in data set [3] (setting [8]) it was at least 85%.

For `O=C(Nc1ccc(-c2ccc(C3CCC(c4c(F)cccc4F)=N3)cc2)cc1)N1CCOCC1` (stereo not drawn) [Compound 5, N-{4′-[5-(2,6-difluorophenyl)-3,4-dihydro-2H-pyrrol-2-yl]-1,1 ′-biphenyl-4-yl}-4-morpholinecarboxamide], the chromatographic logP worked out at 1.87 in data set [1] (setting [10]) and 2.96 in data set [1] (setting [11]). In data set [4] (setting [12]), the pest or weed control at 100 ppm was at least 95%.

Consider `CCCCOC(=O)N(C)c1ccc(-c2ccc(C3CCC(c4c(F)cccc4F)=N3)cc2)cc1` (stereo not drawn) [Compound 3, n-butyl 4′-[5-(2,6-difluorophenyl)-3,4-dihydro-2H-pyrrol-2-yl]-1,1′-biphenyl-4-yl(methyl)carbamate], for which the chromatographic logP in data set [1] (setting [5]) is 3.76; in data set [1] (setting [6]), 4.92.

Turning to `O=C(Nc1ccc(-c2ccc(C3CCC(c4c(F)cccc4F)=N3)cc2)cc1)N1CCCC1` (stereo not drawn) [Compound 11], in data set [1] (setting [10]), the chromatographic logP was determined as 2.11. In data set [3] (setting [14]), the pest or weed control at 100 ppm stood at 100%.

As to `O=C1OCCN1c1ccc(-c2ccc(C3CCC(c4c(F)cccc4F)=N3)cc2)cc1` (stereo not drawn) [Compound 4, 3-{4′-[5-(2,6-difluorophenyl)-3,4-dihydro-2H -pyrrol-2-yl]-1,1′-biphenyl-4-yl}-1,3-oxazolidin-2-one], the chromatographic logP in data set [1] (setting [10]) is 2.13; in data set [1] (setting [11]), 3.28. Besides, the results for the pest or weed control at 100 ppm in data set [4] (setting [12]) and in data set [2] (setting [13]) were at least 95% and at least 85%, respectively.

As for `O=C1OCCN1c1ccc(Br)cc1` [III-4, 3-(4-bromophenyl)-1,3-oxazolidin-2-one], in data set [1] (setting [10]), the chromatographic logP was 2.02.

In the case of `CCOC(=O)N(C)c1ccc(-c2ccc(C3CCC(c4c(F)cccc4F)=N3)cc2)cc1` (stereo not drawn) [Compound 37], the chromatographic logP in data set [1] (setting [5]) was 2.92; in data set [1] (setting [6]), 4.16. Besides, the pest or weed control at 100 ppm in data set [4] (setting [9]) was at least 95%; in data set [3] (setting [8]) it was at least 85%.

Take `O=C(Nc1ccc(Br)cc1)N1CCOCC1` [III-5, N-(4-bromophenyl)-4-morpholinecarboxamide]: the chromatographic logP in data set [1] (setting [10]) worked out at 1.75.

For `O=C(Nc1ccc(-c2ccc(C3CCC(c4c(F)cccc4F)=N3)cc2)cc1)OCc1ccco1` (stereo not drawn) [Compound 26], the chromatographic logP worked out at 3.01 in data set [1] (setting [5]) and 4.1 in data set [1] (setting [6]). Moreover, the pest or weed control at 100 ppm in data set [4] (setting [9]) was at least 95%; in data set [2] (setting [7]), at least 85%.

`CCCC(C)OC(=O)Nc1ccc(-c2ccc(C3CCC(c4c(F)cccc4F)=N3)cc2)cc1` (stereo not drawn) [Compound 17]: the chromatographic logP in data set [1] (setting [6]) stood at 4.82. Further, the pest or weed control at 100 ppm in data set [4] (setting [9]) was at least 95%; in data set [2] (setting [7]), at least 85%.

As for `COCCOC(=O)Nc1ccc(-c2ccc(C3CCC(c4c(F)cccc4F)=N3)cc2)cc1` (stereo not drawn) [Compound 31], the chromatographic logP in data set [1] (setting [5]) was found to be 2.24; in data set [1] (setting [6]), 3.45. For the same compound, the pest or weed control at 100 ppm in data set [4] (setting [9]) was at least 95%.

With `CCC(CC)OC(=O)Nc1ccc(-c2ccc(C3CCC(c4c(F)cccc4F)=N3)cc2)cc1` (stereo not drawn) [Compound 24], the chromatographic logP in data set [1] (setting [5]) amounted to 3.76. Moreover, the pest or weed control at 100 ppm in data set [2] (setting [7]) and in data set [3] (setting [8]) was at least 85% each time.

On to `CCCCOC(=O)Nc1ccc(-c2ccc(C3CCC(c4c(F)cccc4F)=N3)cc2)cc1` (stereo not drawn) [Compound 9], for which the chromatographic logP in data set [1] (setting [5]) was 3.44; in data set [1] (setting [6]) it was 4.6. Also, the pest or weed control at 100 ppm is at least 95% in data set [4] (setting [9]) and 100% in data set [3] (setting [8]).

On to `O=C(Nc1ccc(-c2ccc(C3CCC(c4c(F)cccc4F)=N3)cc2)cc1)OC1CCCCC1` (stereo not drawn) [Compound 10], for which the chromatographic logP in data set [1] (setting [5]) was 3.88; in data set [1] (setting [6]), 1.68. Besides, the values for the pest or weed control at 100 ppm in data set [4] (setting [9]) and in data set [3] (setting [8]) were at least 95% and 100%, respectively.

Take `CCCCN(CC)C(=O)Nc1ccc(-c2ccc(C3CCC(c4c(F)cccc4F)=N3)cc2)cc1` (stereo not drawn) [Compound 14]: the figures for the chromatographic logP in data set [1] (setting [10]) and in data set [1] (setting [11]) were 3.18 and 4.36, respectively. In data set [4] (setting [12]), the pest or weed control at 100 ppm was at least 95%.

Regarding `O=C(Nc1ccc(-c2ccc(C3CCC(c4c(F)cccc4F)=N3)cc2)cc1)N1CCCCC1` (stereo not drawn) [Compound 12], the chromatographic logP in data set [1] (setting [10]) amounted to 2.53; in data set [1] (setting [11]), 3.71. The pest or weed control at 100 ppm in data set [4] (setting [12]) was at least 95%; in data set [3] (setting [14]) it was 100%.

Regarding `O=C(Nc1ccc(-c2ccc(C3CCC(c4c(F)cccc4F)=N3)cc2)cc1)OCCc1ccccc1` (stereo not drawn) [Compound 25], the chromatographic logP in data set [1] (setting [5]) worked out at 3.62; in data set [1] (setting [6]), 4.64. The figures for the pest or weed control at 100 ppm in data set [4] (setting [9]) and in data set [3] (setting [8]) were at least 95% and at least 85%, respectively.

For the compound `CC(OC(=O)Nc1ccc(-c2ccc(C3CCC(c4c(F)cccc4F)=N3)cc2)cc1)c1ccccc1` (stereo not drawn) [Compound 20], the chromatographic logP in data set [1] (setting [5]) was determined as 3.63. Further, the figures for the pest or weed control at 100 ppm in data set [4] (setting [9]) and in data set [3] (setting [8]) were at least 95% and at least 85%, respectively.
